Measurements reported in US11655239B2 (SHANGHAI INSTITUTE OF MATERIAL MEDICA, CHINESE ACADEMY OF …, priority 2019, dated 2023).

What was measured:
VEGFR-1 = VEGFR-1 (Homo sapiens (Human), UniProt P17948); assay: Enzyme selectivity test (ELISA), VEGFR-1; type: biochemical
Protocol: (§1) 1) Enzyme reaction substrate Poly(Glu, Tyr) 4:1 was diluted to 20 μg/mL with potassium-free PBS (10 mM sodium phosphate buffer, 150 mM NaCl, pH 7.2-7.4), and the microtiter plate was coated with 125 μL/well and placed at 37° C. for 12-16 hours of reaction. The liquid in the well was discard. The plate was washed three times with T-PBS (potassium-free PBS containing 0.1% Tween-20, 200 μL/well), 5 minutes each time. The ELISA plate was dried in an oven at 37° C. for 1 to 2 hours.
(§2) 2) Reaction buffer (50 mM HEPES pH 7.4, 50 mM MgCl2, 0.5 mM MnCl2, 0.2 mM Na3VO4, 1 mM DTT) diluted ATP solution (49 μL) was added to each well, 1 μL of the compound to be tested was added to each well, and then 50 μL of DDR2 kinase domain recombinant protein diluted in the reaction buffer was added to start the reaction. Two control wells without ATP were set in each experiment. The plate placed on a shaker (100 rpm) at 37° C. for 1 hour of reaction. The liquid in the well was discarded and the plate was washed three times with T-PBS.
(§3) 3) Antibody PY99 dilution solution (the antibody was diluted 1:500 with T-PBS containing BSA 5 mg/mL) was added at 100 μL/well, and shaken on a shaker at 37° C. for 0.5 hour of reaction. The liquid in the well was discarded and the plate was washed three times with T-PBS.
(§4) 4) Horseradish peroxidase labeled goat anti-murine secondary antibody dilution solution (the antibody is diluted 1:2000 with T-PBS containing BSA 5 mg/ml) was added at 100 μL/well, and shaken on a shaker at 37° C. for 0.5 hour of reaction. The liquid in the well was discarded and the plate was washed three times with T-PBS.
(§5) 5) 2 mg/ml of OPD color developing solution [diluted with 0.1 M citric acid-sodium citrate buffer (pH=5.4) containing 0.03% H2O2] was added at 100 μL/well and reacted for 1 to 10 minutes at 25° C. in the dark.
(§6) 6) 2M H2SO4 was added at 50 μL/well to stop the reaction, and a tunable wavelength microplate reader VERSAmax was used for reading at a wavelength of 490 nm.
(§7) The IC50 value was obtained by four-parameter regression using the software that came with the microplate reader. […]

ALK = ALK (Homo sapiens (Human), UniProt Q9UM73); assay: Enzyme selectivity test (ELISA), ALK; type: biochemical
Chain of ALK (Q9UM73 19-1620, species assumed): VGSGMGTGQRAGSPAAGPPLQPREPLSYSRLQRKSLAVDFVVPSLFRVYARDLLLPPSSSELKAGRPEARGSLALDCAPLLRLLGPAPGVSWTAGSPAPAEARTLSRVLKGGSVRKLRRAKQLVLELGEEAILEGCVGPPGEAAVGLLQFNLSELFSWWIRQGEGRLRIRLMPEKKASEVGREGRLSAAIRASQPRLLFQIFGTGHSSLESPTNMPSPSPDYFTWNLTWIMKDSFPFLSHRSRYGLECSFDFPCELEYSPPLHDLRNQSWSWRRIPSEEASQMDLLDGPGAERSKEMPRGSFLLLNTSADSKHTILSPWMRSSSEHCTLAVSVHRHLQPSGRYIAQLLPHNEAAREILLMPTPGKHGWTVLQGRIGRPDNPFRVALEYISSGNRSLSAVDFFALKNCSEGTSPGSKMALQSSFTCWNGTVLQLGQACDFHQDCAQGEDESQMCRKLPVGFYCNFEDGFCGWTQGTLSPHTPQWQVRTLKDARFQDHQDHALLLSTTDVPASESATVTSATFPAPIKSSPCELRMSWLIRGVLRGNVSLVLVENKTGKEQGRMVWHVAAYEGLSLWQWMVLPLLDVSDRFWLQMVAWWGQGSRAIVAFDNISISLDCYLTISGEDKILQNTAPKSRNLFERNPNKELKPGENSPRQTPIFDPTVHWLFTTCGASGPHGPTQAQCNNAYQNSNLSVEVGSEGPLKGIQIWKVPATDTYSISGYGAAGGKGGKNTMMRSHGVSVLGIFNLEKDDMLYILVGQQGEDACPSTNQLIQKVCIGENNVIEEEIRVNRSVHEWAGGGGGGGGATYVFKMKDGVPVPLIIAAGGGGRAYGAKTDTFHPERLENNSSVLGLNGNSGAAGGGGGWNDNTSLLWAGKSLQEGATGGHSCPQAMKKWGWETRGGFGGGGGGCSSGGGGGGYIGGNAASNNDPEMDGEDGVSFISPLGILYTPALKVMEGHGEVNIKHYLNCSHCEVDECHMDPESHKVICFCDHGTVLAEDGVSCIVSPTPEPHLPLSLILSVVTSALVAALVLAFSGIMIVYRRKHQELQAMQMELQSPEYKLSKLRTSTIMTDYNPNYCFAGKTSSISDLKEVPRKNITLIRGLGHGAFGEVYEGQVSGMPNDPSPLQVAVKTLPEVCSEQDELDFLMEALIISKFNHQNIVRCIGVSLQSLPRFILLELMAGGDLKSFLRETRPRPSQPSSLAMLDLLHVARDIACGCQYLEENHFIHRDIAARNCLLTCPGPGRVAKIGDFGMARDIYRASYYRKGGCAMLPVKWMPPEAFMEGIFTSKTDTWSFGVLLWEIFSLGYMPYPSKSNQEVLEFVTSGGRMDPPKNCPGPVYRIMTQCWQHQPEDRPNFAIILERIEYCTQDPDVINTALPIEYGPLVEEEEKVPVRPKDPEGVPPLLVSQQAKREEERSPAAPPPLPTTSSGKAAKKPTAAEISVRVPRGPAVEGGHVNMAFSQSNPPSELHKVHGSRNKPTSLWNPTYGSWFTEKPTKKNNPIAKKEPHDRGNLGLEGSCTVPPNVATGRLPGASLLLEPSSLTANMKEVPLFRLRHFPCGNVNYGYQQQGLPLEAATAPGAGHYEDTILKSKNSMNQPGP
Protocol: as §1, §2, §3, §4, §5, §6, §7

PDGFR-β = PDGFR-β (Homo sapiens (Human), UniProt P09619); assay: Enzyme selectivity test (ELISA), PDGFR-β; type: biochemical
Protocol: as §1, §2, §3, §4, §5, §6, §7

[1] = system: mouse model of BLM-induced lung injury; assay: Serum ALP and LDH levels; type: in vivo; details: mice
From the text: Alkaline phosphatase (ALP) level and lactate dehydrogenase (LDH) level. An automatic blood indicator analyzer and related kits (alkaline phosphatase assay kit and lactate dehydrogenase assay kit) were used to measure related indicators.
Serum lactate dehydrogenase (LDH) and alkaline phosphatase (ALP) are important markers of inflammatory response of lung injury.

kinases = assay: Enzyme selectivity test, kinase panel overall; type: biochemical; details: kinase panel of Table 5
From the text: Except that the enzyme was different, other test methods and conditions were the same as the DDR2 enzyme activity test method in Effect example 1.

primary lung fibroblasts = assay: Activation of myofibroblasts in primary lung fibroblasts isolated from mice; type: cell-based, mouse; details: primary lung fibroblasts isolated from mice of the experimental groups
ErbB4 = ErbB4 (Homo sapiens (Human), UniProt Q15303); assay: Enzyme selectivity test (ELISA), ErbB4; type: biochemical
Chain of ErbB4 (Q15303 26-1308, species assumed): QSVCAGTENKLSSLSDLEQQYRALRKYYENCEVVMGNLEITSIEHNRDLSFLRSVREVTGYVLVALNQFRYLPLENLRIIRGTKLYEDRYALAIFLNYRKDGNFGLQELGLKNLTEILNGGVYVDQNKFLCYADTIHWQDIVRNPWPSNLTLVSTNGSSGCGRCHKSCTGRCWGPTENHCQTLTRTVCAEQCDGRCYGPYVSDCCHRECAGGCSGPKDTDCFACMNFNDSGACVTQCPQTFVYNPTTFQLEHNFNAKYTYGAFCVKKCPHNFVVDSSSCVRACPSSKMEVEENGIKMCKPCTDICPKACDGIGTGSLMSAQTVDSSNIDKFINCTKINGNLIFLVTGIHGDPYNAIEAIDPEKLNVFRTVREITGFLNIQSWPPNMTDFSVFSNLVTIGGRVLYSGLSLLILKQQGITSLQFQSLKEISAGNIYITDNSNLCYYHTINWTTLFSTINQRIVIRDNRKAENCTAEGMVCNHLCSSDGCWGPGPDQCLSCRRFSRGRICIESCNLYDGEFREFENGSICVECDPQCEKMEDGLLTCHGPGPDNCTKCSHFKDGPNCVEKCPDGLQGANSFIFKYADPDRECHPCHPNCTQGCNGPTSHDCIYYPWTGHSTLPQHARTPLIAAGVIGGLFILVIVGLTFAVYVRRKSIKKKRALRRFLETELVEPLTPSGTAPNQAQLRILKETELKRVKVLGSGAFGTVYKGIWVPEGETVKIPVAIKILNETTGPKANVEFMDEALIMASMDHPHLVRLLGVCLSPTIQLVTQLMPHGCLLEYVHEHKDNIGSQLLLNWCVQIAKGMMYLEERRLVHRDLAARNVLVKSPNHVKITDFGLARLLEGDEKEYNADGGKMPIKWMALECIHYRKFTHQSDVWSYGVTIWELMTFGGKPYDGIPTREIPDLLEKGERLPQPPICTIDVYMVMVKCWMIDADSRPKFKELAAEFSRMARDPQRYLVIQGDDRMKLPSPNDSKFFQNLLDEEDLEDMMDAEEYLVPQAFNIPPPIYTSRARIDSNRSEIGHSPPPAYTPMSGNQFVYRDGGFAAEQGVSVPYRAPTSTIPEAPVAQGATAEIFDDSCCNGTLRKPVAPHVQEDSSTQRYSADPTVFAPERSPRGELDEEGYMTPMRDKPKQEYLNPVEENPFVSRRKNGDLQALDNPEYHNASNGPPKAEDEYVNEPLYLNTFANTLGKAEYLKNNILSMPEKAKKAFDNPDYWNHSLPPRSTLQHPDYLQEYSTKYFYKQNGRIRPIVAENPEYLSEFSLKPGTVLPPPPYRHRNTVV
Protocol: as §1, §2, §3, §4, §5, §6, §7

Met = Met (Homo sapiens (Human), UniProt P08581); assay: Enzyme selectivity test (ELISA), Met; type: biochemical
Protocol: as §1, §2, §3, §4, §5, §6, §7

[2] = system: pulmonary fibrosis induced by bleomycin in mice; assay: MASSON staining and α-SMA immunohistochemical staining of lung sections; type: in vivo, mouse; details: Effect example 5, 30, 60, 90 mg/kg oral qd 12 days
Protocol: The grouping of mice is the same as that in Effect example 2.
1) Dewaxing to water of the paraffin sections: the sections were put into xylene I (20 minutes)-xylene II (29 minutes)-absolute ethanol I (5 minutes)-absolute ethanol II (5 minutes)-75% ethanol (5 minutes), and then washed with tap water.
2) Potassium dichromate staining: the sections were soaked in potassium dichromate overnight and washed with tap water.
3) Iron hematoxylin staining: iron hematoxylin solution A and B were mixed in an equal ratio to form an iron hematoxylin staining solution, then the sections were put into iron hematoxylin for about 3 minutes, washed with tap water, differentiated with a solution of hydrochloric acid in ethanol, and then rinsed with tap water.
4) Ponceau red acid fuchsin staining: the sections were put into a Ponceau red acid fuchsin solution for 5 to 10 minutes and rinsed with tap water.
5) Phosphomolybdic acid staining: the sections were put into an aqueous phosphomolybdic acid solution for 1 to 3 minutes.
6) Aniline blue staining: after the phosphomolybdic acid staining, the sections were not washed with water, but directly put into an aniline blue staining solution for staining for 3 to 6 minutes.
7) Differentiation: the sections were differentiated with 1% glacial acetic acid, and dehydrated with two cylinders of absolute ethanol. […]

Chain of VEGFR-1 (P17948 27-1338, species assumed): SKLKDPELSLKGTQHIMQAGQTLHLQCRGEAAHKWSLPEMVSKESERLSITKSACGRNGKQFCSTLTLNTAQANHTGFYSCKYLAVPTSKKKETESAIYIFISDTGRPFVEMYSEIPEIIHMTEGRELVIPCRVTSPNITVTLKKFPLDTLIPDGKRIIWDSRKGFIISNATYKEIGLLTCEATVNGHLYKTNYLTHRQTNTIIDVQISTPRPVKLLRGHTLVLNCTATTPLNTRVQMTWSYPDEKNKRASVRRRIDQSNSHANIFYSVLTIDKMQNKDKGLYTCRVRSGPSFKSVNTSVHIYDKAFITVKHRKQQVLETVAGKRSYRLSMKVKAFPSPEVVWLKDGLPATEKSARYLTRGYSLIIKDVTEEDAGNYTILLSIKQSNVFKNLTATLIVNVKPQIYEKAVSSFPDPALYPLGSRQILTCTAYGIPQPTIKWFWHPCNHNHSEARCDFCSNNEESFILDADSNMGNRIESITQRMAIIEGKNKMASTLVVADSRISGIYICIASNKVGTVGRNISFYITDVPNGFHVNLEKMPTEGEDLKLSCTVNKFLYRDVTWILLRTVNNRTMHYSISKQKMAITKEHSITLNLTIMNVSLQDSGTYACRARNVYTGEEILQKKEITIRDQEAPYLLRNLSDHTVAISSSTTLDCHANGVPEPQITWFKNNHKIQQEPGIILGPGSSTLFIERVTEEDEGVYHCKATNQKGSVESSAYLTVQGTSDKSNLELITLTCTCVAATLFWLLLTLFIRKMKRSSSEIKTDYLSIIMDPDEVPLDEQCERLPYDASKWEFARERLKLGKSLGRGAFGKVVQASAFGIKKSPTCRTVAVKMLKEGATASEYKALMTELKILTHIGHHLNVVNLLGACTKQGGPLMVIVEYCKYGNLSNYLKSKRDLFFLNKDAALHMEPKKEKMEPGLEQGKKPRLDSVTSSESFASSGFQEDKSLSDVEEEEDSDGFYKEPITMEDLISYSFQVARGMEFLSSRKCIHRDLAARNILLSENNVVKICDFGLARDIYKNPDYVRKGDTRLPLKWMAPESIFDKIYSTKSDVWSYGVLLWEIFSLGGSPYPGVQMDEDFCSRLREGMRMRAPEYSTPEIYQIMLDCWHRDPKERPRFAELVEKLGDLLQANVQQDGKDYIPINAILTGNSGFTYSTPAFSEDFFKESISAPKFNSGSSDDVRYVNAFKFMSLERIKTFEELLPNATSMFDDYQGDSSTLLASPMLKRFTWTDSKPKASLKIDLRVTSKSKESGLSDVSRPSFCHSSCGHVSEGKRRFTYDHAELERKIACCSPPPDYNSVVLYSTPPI

Q: With `O=C(Nc1cccc(C(F)(F)F)c1)c1ccc(C2CC2)c(-c2ccc3nc(Nc4cnn(C5CC5)c4)ncc3c2)c1` [Compound S15, 4-cyclopropyl-3-(2-((1-cyclopropyl-1H-pyrazol-4-yl)amino)quinazolin-6-yl)-N-(3-(trifluoromethyl)phenyl)benzamide] as the molecule, how does the IC50 (VEGFR-1) read?
A: Its IC50 is greater than 1000 nM.

Q: And the IC50 (ALK)?
A: The IC50 was greater than 1000 nM.

Q: What about the IC50 (PDGFR-β) of the same molecule?
A: The IC50 was greater than 1000 nM.

Q: And the ALP serum level [1]?
A: Its ALP serum level is “inhibit the level of ALP more effectively than nintedanib”.

Q: What about the LDH serum level ([1]; 90 mg/kg high dose group) of the same molecule?
A: The LDH serum level was “effectively inhibit serum LDH level”.

Q: And the selectivity for kinases (kinases)?
A: Its selectivity for kinases is “good selectivity”.

Q: What about the activation of myofibroblasts (primary lung fibroblasts) of the same molecule?
A: Its activation of myofibroblasts is “inhibit the activation of myofibroblasts in a dose-dependent manner”.

Q: What about the IC50 (ErbB4) of the same molecule?
A: Its IC50 is greater than 10 nM.

Q: What about the IC50 (Met) of the same molecule?
A: The IC50 was greater than 1000 nM.

Q: And the “expression of collagen and α-SMA (staining, immunohistochemistry)” value [2]?
A: The value was “decrease the expression of collagen and α-SMA in a dose-dependent manner”.

Q: And the “pulmonary fibrosis, MASSON staining” value [2]?
A: Its value is “significantly reduce BLM-induced lung injury and inflammation, and can also reduce pulmonary fibrosis”.
